In experiment [1] the target is T1, rat SSTR-5 (Rattus norvegicus, UniProt P30938).
T1 sequence (P30938 1-363): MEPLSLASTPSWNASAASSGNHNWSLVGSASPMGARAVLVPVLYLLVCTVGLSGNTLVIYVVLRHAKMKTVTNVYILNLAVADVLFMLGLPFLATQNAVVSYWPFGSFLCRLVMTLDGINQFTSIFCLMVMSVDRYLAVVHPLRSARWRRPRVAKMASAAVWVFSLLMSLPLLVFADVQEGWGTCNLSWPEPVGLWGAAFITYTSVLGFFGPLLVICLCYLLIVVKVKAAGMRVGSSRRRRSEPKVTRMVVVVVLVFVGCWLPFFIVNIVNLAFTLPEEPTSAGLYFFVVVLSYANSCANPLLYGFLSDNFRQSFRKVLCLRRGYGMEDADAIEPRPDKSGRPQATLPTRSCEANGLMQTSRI
Kind of experiment: Radioligand binding, inhibition of 125I-Tyr11-SRIF binding to cloned rat SSTR-5. As to the method: (§1) The somatostatin analogs were tested for their potency in inhibition of the binding of ^125 I-Tyr^11 -SRIF (based on the method described by Raynor et. al., Molecular Pharmacology 43, 838-844, 1993) to membrane preparations expressing the transmembranal somatostatin receptors (SSTR-1,2,3,4 or 5). The receptor preparations used for these tests were either from the cloned receptors selectively and stably expressed in Chinese Hamster Ovary (CHO) cells or from cell lines naturally expressing the SSTRs. […] The binding reactions were filtered, the filters were washed and the bound radioactivity was counted in gamma counter. […] In order to validate positive signals of the binding tests, and to eliminate non-specific signals, samples of irrelevant peptides, such as GnRH, that were synthesized and handled using the same procedures, were tested in the same assays as negative control samples.

Experiment [2] concerns the target T2, SSTR-3 (Homo sapiens, UniProt P32745). Kind of experiment: Radioligand binding, inhibition of 125I-Tyr11-SRIF binding to cloned SSTR-3. As to the method:
as §1

The target in experiment [3] is T3, SSTR-4 (Homo sapiens, UniProt P31391). Kind of experiment: Radioligand binding, inhibition of 125I-Tyr11-SRIF binding to cloned SSTR-4. As to the method:
as §1

The target in experiment [4] is T4, human SSTR-5 (Homo sapiens, UniProt P35346). Kind of experiment: Radioligand binding, inhibition of 125I-Tyr11-SRIF binding to cloned human SSTR-5. As to the method:
as §1

Experiment [5] addresses T5, SSTR-1 (Homo sapiens, UniProt P30872). Kind of experiment: Radioligand binding, inhibition of 125I-Tyr11-SRIF binding to cloned SSTR-1. As to the method: as §1
The target of experiment [6] is T2, SSTR-3. Conditions: Table 22; known SST analogs, literature values; cited from earlier work.
The test system of another experiment is SSTR-2. Conditions: Table 22; known SST analogs, literature values; cited from earlier work.
Experiment [7] has as its target T5, SSTR-1. Conditions: Table 22; known SST analogs, literature values; cited from earlier work.
Experiment [8] has as its target T1, rat SSTR-5. Conditions: Table 22; known SST analogs, literature values; read-out: IC50 value rSSTR 5; cited from earlier work.
Experiment [9] has as its target T3, SSTR-4. Conditions: Table 22; known SST analogs, literature values; cited from earlier work.
The target of experiment [10] is T4, human SSTR-5. Conditions: Table 22; known SST analogs, literature values; read-out: IC50 value hSSTR 5; cited from earlier work.

pIC50: −log10 of the molar value. Read-outs that look alike come from different tables or passages of the source. Peptide text beside a SMILES is read from it. Bounds are passed on as bounds.

T4 sequence (P35346 whole entry): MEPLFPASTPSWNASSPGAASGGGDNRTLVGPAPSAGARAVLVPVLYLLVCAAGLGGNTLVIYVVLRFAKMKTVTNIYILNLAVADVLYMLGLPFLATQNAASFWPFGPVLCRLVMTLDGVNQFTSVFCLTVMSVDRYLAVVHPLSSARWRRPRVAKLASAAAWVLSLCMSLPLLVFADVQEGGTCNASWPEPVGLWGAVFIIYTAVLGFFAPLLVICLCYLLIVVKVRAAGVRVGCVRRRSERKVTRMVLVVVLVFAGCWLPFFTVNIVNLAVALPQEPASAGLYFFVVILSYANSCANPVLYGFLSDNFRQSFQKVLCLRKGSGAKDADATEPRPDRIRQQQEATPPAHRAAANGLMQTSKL
T3 sequence (P31391 whole entry, species assumed): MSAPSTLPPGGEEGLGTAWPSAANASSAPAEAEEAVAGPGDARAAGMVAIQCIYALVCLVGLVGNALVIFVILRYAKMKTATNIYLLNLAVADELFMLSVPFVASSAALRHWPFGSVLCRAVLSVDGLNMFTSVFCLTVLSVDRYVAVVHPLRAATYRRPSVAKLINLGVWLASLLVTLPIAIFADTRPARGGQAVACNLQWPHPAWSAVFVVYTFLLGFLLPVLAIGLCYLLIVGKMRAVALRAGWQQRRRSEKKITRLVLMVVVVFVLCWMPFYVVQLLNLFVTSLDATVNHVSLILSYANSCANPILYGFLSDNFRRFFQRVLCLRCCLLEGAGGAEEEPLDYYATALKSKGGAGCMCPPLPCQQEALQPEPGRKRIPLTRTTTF
T5 sequence (P30872 whole entry, species assumed): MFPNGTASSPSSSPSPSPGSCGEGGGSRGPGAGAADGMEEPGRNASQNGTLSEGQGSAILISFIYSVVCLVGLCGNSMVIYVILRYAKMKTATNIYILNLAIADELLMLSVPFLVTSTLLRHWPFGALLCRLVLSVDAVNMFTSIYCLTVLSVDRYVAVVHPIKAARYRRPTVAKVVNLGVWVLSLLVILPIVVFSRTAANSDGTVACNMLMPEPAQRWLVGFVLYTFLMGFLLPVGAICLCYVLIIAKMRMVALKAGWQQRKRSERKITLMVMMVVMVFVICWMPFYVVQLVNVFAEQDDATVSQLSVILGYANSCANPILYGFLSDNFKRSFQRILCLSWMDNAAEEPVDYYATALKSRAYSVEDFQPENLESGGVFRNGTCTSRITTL
T2 sequence (P32745 whole entry, species assumed): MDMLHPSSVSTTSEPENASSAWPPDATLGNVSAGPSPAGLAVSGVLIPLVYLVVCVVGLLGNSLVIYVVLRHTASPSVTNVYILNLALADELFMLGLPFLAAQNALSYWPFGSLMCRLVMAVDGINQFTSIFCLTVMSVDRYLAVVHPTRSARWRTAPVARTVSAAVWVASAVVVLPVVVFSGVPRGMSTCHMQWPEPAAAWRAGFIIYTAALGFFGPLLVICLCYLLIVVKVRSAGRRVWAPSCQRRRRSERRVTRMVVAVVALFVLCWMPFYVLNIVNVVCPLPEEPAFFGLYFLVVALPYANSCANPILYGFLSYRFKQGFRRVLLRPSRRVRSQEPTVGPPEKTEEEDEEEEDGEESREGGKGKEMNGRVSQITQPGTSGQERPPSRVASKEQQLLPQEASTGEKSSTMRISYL

On to `C[C@@H](O)[C@H](NC(=O)CN1CCC(=O)NCCCN(C(=O)[C@H](N)Cc2ccccc2)CC(=O)N[C@@H](Cc2ccccc2)C(=O)N[C@H](Cc2c[nH]c3ccccc23)C(=O)N[C@@H](CCCCN)C(=O)N[C@@H]([C@@H](C)O)C1=O)C(N)=O` [PTR 3010] (HELM PEPTIDE1{[dF].[O=C(CN(CCCN[*:3])[*:1])[*:2]].F.[dW].K.T.[O=C(CN(CCC(=O)[*:3])[*:1])[*:2]].T.[am]}$PEPTIDE1,PEPTIDE1,2:R3-7:R3$$$V2.0), for which the pIC50 at rat SSTR-5 [1] is 6.30; at SSTR-3 [2] it was less than 6.00; at SSTR-4 [3], less than 5.00; at human SSTR-5 [4], less than 5.70; on SSTR-1 [5], 5.60.

As to `CC(C)[C@@H]1NC(=O)[C@H](CCCCN)NC(=O)[C@@H](Cc2c[nH]c3ccccc23)NC(=O)[C@H](Cc2ccc(O)cc2)NC(=O)[C@@H](NC(=O)[C@H](N)Cc2ccc3ccccc3c2)CSSC[C@@H](C(=O)N[C@H](C(N)=O)[C@@H](C)O)NC1=O` [Somatuline], the pIC50 on SSTR-3 [6] was 8.22; with SSTR-2, 8.70; at SSTR-1 [7], 6.10; on rat SSTR-5 [8], 9.30.

Take “DPhe^5 -Phe^6 -Phe^7 -DTrp^8 -Lys^9 -Thr^10 -Phe^11 -Thr^12 -NH2 [BIM-23052]”: the pIC50 at rat SSTR-5 [8] is 11.40; on SSTR-4 [9], 7.74; on human SSTR-5 [10], 8.40.

In general, pIC50 refers to the negative decadic logarithm of the IC50, by convention in mol/L.

The record behind these values is patent US5770687A, “Comformationally constrained backbone cyclized somatostatin analogs” (Peptor Limited, priority 1996, dated 1998).
